# Reference: patent US11109593B2, “Isoxazolin-5-one derivative and herbicide containing same as active ingredient” (HOKKO CHEMICAL INDUSTRY CO., LTD., priority 2017, dated 2021)
# Key:
# Assay type in all cases: in vivo
# Amaranthus viridis = test: Test Example 3: herbicidal effect test by treatment of dry field farming soil (one day after seeding); details: 120 g/10a active ingredient, evaluated 14 days after treatment
# Procedure: (§1) This test was conducted in a double system per one agent solution concentration area, and the herbicidal rates (%) were determined by the following equation (Math. 1) on 14 days after the treatment with the agents. Herbicidal Rate (%)={1-(Average Dry Weight (g) of Plant of Treated Area)/(Average Dry Weight (g) of Plant of Untreated Area)}×100 [Math. 1]
# (§2) Herbicidal Effect Test by Treatment of Dry Field Farming Soil
# (§3) Pots with a size of 36 cm^2 were filled with a dry field farming soil (alluvium). The soil of the top layer of 1 cm and seeds of weeds, namely southern crabgrass, Echinochloa crus-galli, Chenopodium album and Amaranthus viridis, 20 seeds each, were evenly mixed, and the top layer was gently pressed. Emulsions prepared using the compounds in Table 5 below according to Formulation Example 5 were diluted with water one day after seeding, and the water-diluted agent solutions were sprayed to the soil surfaces at a ratio of 100 liters per 10 ares. The converted amount of the applied active ingredient corresponded to 120 g per 10 ares. The herbicidal effects were evaluated by the same standard as that in Test Example 1 on 14 days after the treatment with the agents. […] The compound numbers in Table 5 are the same as those in Table 1 and Table 2 above.
# Chenopodium album = test: as above; details: 120 g/10a active ingredient, evaluated 14 days after treatment
# Procedure: as §1, §2, §3
# southern crabgrass = test: as above; details: 120 g/10a active ingredient, evaluated 14 days after treatment
# Procedure: as §1, §2, §3
# Echinochloa crus-galli [1] = test: as above; details: 120 g/10a active ingredient, evaluated 14 days after treatment
# Procedure: as §1, §2, §3
# [2] = test system: broad leaf weeds (Lindernia pyxidaria and Monochoria vaginalis); test: Test Example 1: herbicidal effect test by treatment of rice paddy soil (immediately after seeding)
# Method in brief: (§4)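 Application occurs immediately after seeding, with diluted emulsion added to paddy water (about 3 cm deep) over puddled, fertilized soil at 120 g active ingredient per 10 ares. Herbicidal rate is calculated from mean dry weight against untreated controls 14 days later.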
# Scirpus juncoides [3] = test: as above
# Method in brief: as §4
# Echinochloa crus-galli [4] = test: as above
# Method in brief: as §4
# [5] = test system: broad leaf weeds (Lindernia pyxidaria and Monochoria vaginalis); test: Test Example 2: herbicidal effect test by treatment during growing period in paddy rice cultivation (seven days after seeding); details: for Herbicidal rate (%) Lindernia pyxidaria / Herbicidal rate (%) Monochoria vaginalis: 120 g/10a active ingredient, assessed 14 days after treatment, dry weight vs untreated area
# Method in brief: (§5)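 Emulsion formulations, diluted in water, applied dropwise to flooded pots (about 3 cm water) 7 days post-seeding at 120 g a.i./10 ares. Weeds sown 30 seeds each, 0–1 cm deep in puddled paddy soil; greenhouse. Readout: % reduction in plant dry weight vs untreated, day 14, duplicates.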
# Scirpus juncoides [6] = test: as above; details: for Herbicidal rate (%) Scirpus juncoides: 120 g/10a active ingredient, assessed 14 days after treatment, dry weight vs untreated area
# Method in brief: as §5
# Echinochloa crus-galli [7] = test: as above; details: for Herbicidal rate (%) Echinochloa crus-galli: 120 g/10a active ingredient, assessed 14 days after treatment, dry weight vs untreated area
# Method in brief: as §5
# [8] = Lindernia pyxidaria, 120 g/10a active ingredient, dry weight vs untreated area, 14 days after treatment
# [9] = Monochoria vaginalis, 120 g/10a active ingredient, dry weight vs untreated area, 14 days after treatment
# [10] = 120 g/10a active ingredient, dry weight vs untreated area, 14 days after treatment
# [11] = 120 g/10a active ingredient, 14 days after treatment, dry weight vs untreated area
# [12] = 120 g/10a, rated 14 days after treatment, paddy soil pots
SMILES,"herbicidal rate, Amaranthus viridis (Amaranthus viridis) [%]","herbicidal rate, Chenopodium album (Chenopodium album) [%]","herbicidal rate, southern crabgrass (southern crabgrass) [%]","herbicidal rate, Echinochloa crus-galli (Echinochloa crus-galli [1]) [%]","Herbicidal rate (%) Lindernia pyxidaria [2, 8] [%]","Herbicidal rate (%) Monochoria vaginalis [2, 9] [%]",Herbicidal rate (%) Scirpus juncoides (Scirpus juncoides [3]; [10]) [%],Herbicidal rate (%) Echinochloa crus-galli (Echinochloa crus-galli [4]; [10]) [%],Herbicidal rate (%) Lindernia pyxidaria ([5]; Lindernia pyxidaria) [%],Herbicidal rate (%) Monochoria vaginalis ([5]; Monochoria vaginalis) [%],Herbicidal rate (%) Scirpus juncoides (Scirpus juncoides [6]) [%],Herbicidal rate (%) Echinochloa crus-galli (Echinochloa crus-galli [7]) [%],"Herbicidal rate (%) Lindernia pyxidaria ([2]; Lindernia pyxidaria, 120 g/10a active ingredient, 14 days after treatment, dry weight vs untreated area) [%]","Herbicidal rate (%) Monochoria vaginalis ([2]; Monochoria vaginalis, 120 g/10a active ingredient, 14 days after treatment, dry weight vs untreated area) [%]",Herbicidal rate (%) Scirpus juncoides (Scirpus juncoides [3]; [11]) [%],Herbicidal rate (%) Echinochloa crus-galli (Echinochloa crus-galli [4]; [11]) [%],"herbicidal rate, Lindernia pyxidaria ([5]; Lindernia pyxidaria, 120 g/10a, rated 14 days after treatment, paddy soil pots) [%]","herbicidal rate, Monochoria vaginalis ([5]; Monochoria vaginalis, 120 g/10a, rated 14 days after treatment, paddy soil pots) [%]","herbicidal rate, Scirpus juncoides (Scirpus juncoides [6]; [12]) [%]","herbicidal rate, Echinochloa crus-galli (Echinochloa crus-galli [7]; [12]) [%]"
Cc1c(Cc2ccccc2N(S(=O)(=O)C(F)(F)F)S(=O)(=O)C(F)(F)F)c(=O)on1Cc1ccccc1 [Compound 1-1011],40,40,80,90,90,90,90,90,90,90,90,40,,,,,,,,
Cc1c(Cc2ccccc2NS(=O)(=O)C(F)(F)F)c(=O)on1CC1(C)COC1 [Compound 1-229],60,40,60,40,80,100,90,70,60,90,90,70,,,,,,,,
Cc1c(Cc2ccccc2NS(=O)(=O)C(F)(F)F)c(=O)on1CCOc1ccccc1 [Compound 1-237],80,40,50,50,90,80,80,90,60,90,90,90,,,,,,,,
Cc1c(Cc2ccccc2NS(=O)(=O)C(F)(F)F)c(=O)on1C(C)c1ccccc1 (stereo not shown) [Compound 1-203],40,40,90,60,100,100,90,90,90,90,90,90,,,,,,,,
Cc1c(Cc2ccccc2NS(=O)(=O)C(F)(F)F)c(=O)on1CC1CC1 [Compound 1-143],60,0,40,50,100,100,90,90,70,80,90,90,,,,,,,,
Cc1c(Cc2ccccc2NS(=O)(=O)C(F)(F)F)c(=O)on1S(=O)(=O)C(C)C [Compound 1-251],80,80,80,100,90,100,80,100,50,80,90,50,,,,,,,,
Cc1c(Cc2ccccc2NS(=O)(=O)C(F)(F)F)c(=O)on1CCSC(C)C [Compound 1-166],60,60,90,90,90,90,90,100,90,90,90,100,,,,,,,,
Cc1c(Cc2ccccc2NS(=O)(=O)C(F)(F)F)c(=O)on1CCOCC(C)C [Compound 1-156],60,60,80,80,100,80,100,100,100,100,90,80,,,,,,,,
CC(C)n1oc(=O)c(Cc2ccccc2NS(=O)(=O)C(F)(F)F)c1C1CC1 [Compound 1-83],40,40,40,50,100,70,90,90,40,40,60,40,,,,,,,,
Cc1c(Cc2ccccc2N(S(=O)(=O)C(F)(F)F)S(=O)(=O)C(F)(F)F)c(=O)on1Cc1ccsc1 [Compound 1-1055],,,,,,,,,,,,,100,100,90,60,40,60,80,80
CC(C)c1c(Cc2ccccc2NS(=O)(=O)C(F)(F)F)c(=O)on1C(C)C [Compound 1-68],,,,,90,80,90,80,70,80,80,40,,,,,,,,
Cc1c(Cc2ccccc2NS(=O)(=O)C(F)(F)F)c(=O)on1C(C)c1ccc(Cl)cc1 (stereo not shown) [Compound 1-207],,,,,100,100,90,100,60,70,70,60,,,,,,,,
Cc1c(Cc2ccccc2NS(=O)(=O)C(F)(F)F)c(=O)on1Cc1ccc(C#N)cc1 [Compound 1-189],,,,,100,90,90,90,80,80,80,60,,,,,,,,
Cc1c(Cc2ccccc2NS(=O)(=O)C(F)(F)F)c(=O)on1Cc1ccc(Cl)cc1 [Compound 1-186],,,,,100,100,90,90,80,80,80,50,,,,,,,,
